Data from ChEMBL document CHEMBL1201862, “PubChem BioAssay data set” (2004).
Calls of active or inactive are those of the source.

How the values were obtained:
[1] = viability of PTEN-deleted HCT116 cells – cell-based, HCT116 PTEN knockout, dose response (AID 1047); format: functional;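 note: HCT116 colon tumor cells with PTEN knocked out; cells exposed to compound for 60 hours before readout; potency for loss of cell viability measured by luminescence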
[2] = viability of HCT116 lacking mutant beta-catenin – cell-based, human colon tumor, dose response (AID 1045); format: functional;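 note: HCT116 colon tumor cells with beta catenin knocked out; cells exposed to compound for 60 hours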
[3] = target: T1, Protein skinhead-1 (Caenorhabditis elegans, UniProt P34707); format: functional
T1 sequence (P34707 whole entry): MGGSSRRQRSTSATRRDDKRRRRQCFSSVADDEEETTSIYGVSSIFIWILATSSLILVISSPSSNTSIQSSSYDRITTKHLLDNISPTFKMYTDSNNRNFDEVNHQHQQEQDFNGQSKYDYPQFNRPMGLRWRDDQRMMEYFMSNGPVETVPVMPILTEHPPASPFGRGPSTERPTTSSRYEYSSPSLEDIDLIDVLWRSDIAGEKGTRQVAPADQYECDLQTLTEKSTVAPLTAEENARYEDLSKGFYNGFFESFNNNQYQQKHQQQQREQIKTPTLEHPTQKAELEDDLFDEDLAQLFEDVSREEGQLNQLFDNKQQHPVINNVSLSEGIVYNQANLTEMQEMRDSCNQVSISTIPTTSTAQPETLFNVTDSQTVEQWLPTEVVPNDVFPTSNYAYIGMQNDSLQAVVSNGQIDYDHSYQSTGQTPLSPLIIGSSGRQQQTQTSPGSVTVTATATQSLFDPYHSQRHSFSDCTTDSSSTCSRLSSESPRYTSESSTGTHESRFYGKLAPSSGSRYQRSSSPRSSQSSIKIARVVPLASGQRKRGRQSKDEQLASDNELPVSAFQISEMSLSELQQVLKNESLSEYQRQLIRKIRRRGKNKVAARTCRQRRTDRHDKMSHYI

[4] = target: T2, Carboxy-terminal domain RNA polymerase II polypeptide A small phosphatase 1 (Homo sapiens, UniProt Q9GZU7); assay: CTDSP1 inhibitors, concentration-response, biochemical, absorbance readout, ultra-high-throughput screen actives (AID 540297); format: functional
T2 sequence (Q9GZU7 whole entry): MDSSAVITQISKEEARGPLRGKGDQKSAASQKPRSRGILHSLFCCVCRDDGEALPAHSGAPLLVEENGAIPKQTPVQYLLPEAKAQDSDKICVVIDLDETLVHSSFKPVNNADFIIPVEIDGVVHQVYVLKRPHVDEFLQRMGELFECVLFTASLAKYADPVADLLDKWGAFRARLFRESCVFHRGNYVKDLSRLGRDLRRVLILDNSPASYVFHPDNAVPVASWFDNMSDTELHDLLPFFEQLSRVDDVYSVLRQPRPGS

[5] = blockers of HIV-1 envelope-mediated cell-cell fusion – cherry-pick, dose response (AID 652057); format: functional, cell-based
[6] = HIV-1 AD8 envelope cell-cell fusion blockers – cherry-pick, dose response (AID 652062); format: functional, cell-based;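 note: luciferase signal from cell-cell fusion driven by HIV-1 clade B AD8 Env; potency is for inhibitors of fusion seen as a drop in luminescence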
[7] = blockers of HIV-1 ZM109 envelope-driven cell-cell fusion – HeLa effector, CEM target cells, luciferase, cherry-pick, dose response (AID 652058); format: functional, cell-based;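 note: luciferase signal from HIV-1 Env mediated cell-cell fusion of effector and target cells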
[8] = off-target signal loss in HeLa-CEM21 co-culture – HeLa F-luc CTL cells, cherry-picked, counter-screen for HIV-1 Env fusion inhibitor project, dose response (AID 652040); format: functional, cell-based;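 note: potency for signal decrease marking cytotoxic or nonspecific inhibition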
[9] = target: Genome polyprotein (dengue virus type 2, UniProt P29990); assay: flavivirus cap methylation enzyme inhibition – biochemical, confirmation dose response, primary screen (AID 588689); format: functional
[10] = non-specific 3'UTR reporter inhibition in Clone20-Shn3RL – cell-based, Renilla luciferase, cherry-picked, counter-screen for Shn3 inhibitor project, dose response (AID 624133); format: functional
[11] = loss of viability in HepG2 cells – cell-based, CellTiter-Glo, cherry-picked, cytotoxicity control for Shn3 inhibitor project, dose response (AID 624134); format: functional
[12] = reduction of Shn3 3'UTR-driven luciferase in osteoblasts – cell-based, Clone20 osteoblasts, firefly luciferase, cherry-picked, dose response (AID 624132); format: functional;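 note: firefly luciferase luminescence from reporter carrying the Shn3 3'UTR in osteoblasts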
[13] = target: T3, Rac GTPase-activating protein 1 (Homo sapiens, UniProt Q9H0H5); assay: blockers of MgcRacGAP-driven Rac1 GTP hydrolysis – biochemical, ADP Hunter fluorescence, primary and confirmatory, confirmation (AID 624330); format: functional
T3 sequence (Q9H0H5 whole entry): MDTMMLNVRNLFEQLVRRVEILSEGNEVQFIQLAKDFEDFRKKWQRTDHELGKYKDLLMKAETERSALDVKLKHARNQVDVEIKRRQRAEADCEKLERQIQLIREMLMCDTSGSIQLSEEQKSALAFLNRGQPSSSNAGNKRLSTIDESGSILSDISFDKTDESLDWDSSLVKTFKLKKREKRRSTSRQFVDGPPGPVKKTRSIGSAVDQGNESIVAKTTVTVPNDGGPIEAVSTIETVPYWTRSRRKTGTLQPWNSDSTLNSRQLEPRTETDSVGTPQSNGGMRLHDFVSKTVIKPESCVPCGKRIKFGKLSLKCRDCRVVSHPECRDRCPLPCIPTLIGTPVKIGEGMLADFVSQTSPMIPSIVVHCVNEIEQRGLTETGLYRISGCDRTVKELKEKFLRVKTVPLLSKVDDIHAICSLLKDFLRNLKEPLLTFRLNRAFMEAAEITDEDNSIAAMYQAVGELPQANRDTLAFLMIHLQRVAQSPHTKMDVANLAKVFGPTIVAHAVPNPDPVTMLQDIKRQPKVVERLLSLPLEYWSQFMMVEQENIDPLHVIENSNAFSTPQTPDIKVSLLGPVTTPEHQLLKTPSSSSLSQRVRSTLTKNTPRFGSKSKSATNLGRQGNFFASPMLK

[14] = target: T4, Heat shock factor protein 1 (Mus musculus, UniProt P38532); assay: decrease of HSF1-responsive luciferase luminescence – cell-based, NIH3T3, dose retest, confirmation (AID 2382); format: functional;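 note: NIH3T3 fibroblasts with HSF1-driven luciferase reporter stressed by proteasome inhibitor MG132; luminescence from HSF1-driven luciferase expression after 8 hours of MG132 stress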
T4 sequence (P38532 whole entry): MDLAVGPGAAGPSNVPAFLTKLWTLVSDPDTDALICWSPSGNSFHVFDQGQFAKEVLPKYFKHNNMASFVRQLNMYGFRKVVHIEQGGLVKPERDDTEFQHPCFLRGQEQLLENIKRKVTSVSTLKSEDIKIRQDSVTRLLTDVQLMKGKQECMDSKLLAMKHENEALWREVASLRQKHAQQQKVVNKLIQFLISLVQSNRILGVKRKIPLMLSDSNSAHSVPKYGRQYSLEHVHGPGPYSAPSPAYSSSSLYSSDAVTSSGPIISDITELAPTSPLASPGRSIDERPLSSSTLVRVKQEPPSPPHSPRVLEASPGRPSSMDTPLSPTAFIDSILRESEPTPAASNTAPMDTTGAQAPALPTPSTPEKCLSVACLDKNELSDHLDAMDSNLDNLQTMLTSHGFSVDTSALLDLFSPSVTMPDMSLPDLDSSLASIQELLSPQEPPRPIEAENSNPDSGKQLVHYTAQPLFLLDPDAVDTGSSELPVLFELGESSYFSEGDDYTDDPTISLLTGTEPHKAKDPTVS

[15] = target: Cytochrome P450 2C9 (Homo sapiens, UniProt P11712)
[16] = test system: Streptococcus sp. 'group A'; assay: Streptococcus pyogenes SK(-)GAS viability under kanamycin – luminescence, BacTiterGlo, confirmation, counter-screen for streptokinase expression inhibitor project, dose response (AID 1900); format: functional, organism-based
[17] = test system: Streptococcus; assay: GAS UMAA2166 growth inhibition – luminescence, BacTiterGlo, counter-screen for streptokinase expression inhibitor project, dose response (AID 1915); format: functional, organism-based;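 note: potency for reduction of bacterial viability or growth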
[18] = target: T5, Streptokinase A (Streptococcus pyogenes serotype M1, UniProt P10520); assay: viability-normalized secreted streptokinase activity reduction – plasminogen activation absorbance, OD405, dose response (AID 1914); format: functional, Streptococcus pyogenes M1 GAS;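 note: secreted streptokinase activity via plasminogen activation per viability signal from cell pellet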
T5 sequence (P10520 whole entry): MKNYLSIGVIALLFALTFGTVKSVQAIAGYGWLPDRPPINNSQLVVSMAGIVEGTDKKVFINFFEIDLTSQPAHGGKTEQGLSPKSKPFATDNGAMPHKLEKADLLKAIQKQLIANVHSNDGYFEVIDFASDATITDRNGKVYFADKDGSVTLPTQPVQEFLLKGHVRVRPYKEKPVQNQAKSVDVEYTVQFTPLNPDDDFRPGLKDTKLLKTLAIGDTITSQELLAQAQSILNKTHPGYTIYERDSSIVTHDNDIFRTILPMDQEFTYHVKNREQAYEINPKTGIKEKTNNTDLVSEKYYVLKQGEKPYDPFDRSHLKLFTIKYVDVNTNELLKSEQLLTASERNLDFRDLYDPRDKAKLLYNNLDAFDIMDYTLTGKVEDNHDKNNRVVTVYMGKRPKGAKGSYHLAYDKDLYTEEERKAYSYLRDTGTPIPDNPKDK

Chain of Genome polyprotein (P29990 2492-3391 limits assumed): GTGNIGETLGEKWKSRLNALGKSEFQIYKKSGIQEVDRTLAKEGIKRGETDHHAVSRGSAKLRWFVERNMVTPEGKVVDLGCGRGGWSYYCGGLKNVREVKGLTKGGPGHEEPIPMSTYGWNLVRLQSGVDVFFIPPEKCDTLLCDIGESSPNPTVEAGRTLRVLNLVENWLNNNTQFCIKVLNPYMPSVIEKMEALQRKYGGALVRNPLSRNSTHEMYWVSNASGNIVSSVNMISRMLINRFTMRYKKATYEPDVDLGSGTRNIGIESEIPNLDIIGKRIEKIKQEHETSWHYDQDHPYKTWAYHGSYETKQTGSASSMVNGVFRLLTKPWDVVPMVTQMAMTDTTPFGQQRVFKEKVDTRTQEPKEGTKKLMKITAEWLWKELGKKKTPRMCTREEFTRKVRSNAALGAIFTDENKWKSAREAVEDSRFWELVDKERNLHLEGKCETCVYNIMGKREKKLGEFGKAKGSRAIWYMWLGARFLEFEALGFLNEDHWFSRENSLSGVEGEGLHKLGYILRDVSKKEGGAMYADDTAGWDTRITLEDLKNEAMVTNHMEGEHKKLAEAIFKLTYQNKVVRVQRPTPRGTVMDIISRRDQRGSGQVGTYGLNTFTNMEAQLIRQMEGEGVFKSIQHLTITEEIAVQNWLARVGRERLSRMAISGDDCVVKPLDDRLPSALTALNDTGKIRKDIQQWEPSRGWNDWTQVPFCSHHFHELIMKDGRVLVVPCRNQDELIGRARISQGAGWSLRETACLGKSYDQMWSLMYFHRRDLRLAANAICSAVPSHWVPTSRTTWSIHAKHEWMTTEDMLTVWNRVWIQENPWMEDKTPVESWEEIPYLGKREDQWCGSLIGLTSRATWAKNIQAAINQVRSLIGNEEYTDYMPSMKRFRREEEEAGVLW
Chain of Cytochrome P450 2C9 (P11712 whole entry): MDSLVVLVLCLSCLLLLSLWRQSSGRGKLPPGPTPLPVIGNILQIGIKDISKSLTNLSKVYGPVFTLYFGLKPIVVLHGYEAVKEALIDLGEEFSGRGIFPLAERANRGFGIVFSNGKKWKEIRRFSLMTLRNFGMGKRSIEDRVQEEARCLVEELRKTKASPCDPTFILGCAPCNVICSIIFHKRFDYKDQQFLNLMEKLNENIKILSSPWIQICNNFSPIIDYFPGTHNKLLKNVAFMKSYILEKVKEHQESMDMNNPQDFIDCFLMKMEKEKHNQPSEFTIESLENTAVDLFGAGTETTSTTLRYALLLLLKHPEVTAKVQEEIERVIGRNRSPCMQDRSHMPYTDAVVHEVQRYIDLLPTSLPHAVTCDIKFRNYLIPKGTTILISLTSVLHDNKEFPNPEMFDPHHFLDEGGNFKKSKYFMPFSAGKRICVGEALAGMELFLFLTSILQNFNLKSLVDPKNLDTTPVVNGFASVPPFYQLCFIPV

## O=C(Cn1nnc(-c2ccccc2Cl)n1)N/N=C/c1ccc(-c2cccc(Cl)c2)o1
[1]
  EC50: 20.1 µM (active)
[2]
  EC50: 39.1 µM (active)

## CCC(C)(C)c1nnc(NC(=O)CCC2CCCCC2)s1
[3]
  IC50: > 100 µM (inactive)

## COc1cc(/C=C2\C(=N)N3N=C(S(C)(=O)=O)SC3=NC2=O)ccc1OC(=O)c1ccco1
[4]
  IC50: 4.55 µM (active)

## COc1ccc(Cl)cc1NC(=O)CN(C)C(=O)CCCc1c[nH]c2ccccc12
[5]
  AC50: 3.29 µM (active)
[6]
  AC50: 4.6 µM (active)
[7]
  AC50: 5.13 µM (active)
[8]
  AC50: 4.68 µM (active)

## Cc1cc(=O)c2c(o1)C(=O)c1occc1C2=O
[9]
  IC50: 62.4 µM (active)

## C=C1C(=O)OC2C=C(CO)C3OC3C3OC3(C)CC(OC(=O)/C(=C/C)COC(C)=O)C12 (stereo not drawn)
[10]
  AC50: 9.84 µM (active)
[11]
  AC50: 32.2 µM (active)
[12]
  AC50: 5.89 µM (active)

## CCOc1ccccc1C(=O)Nc1ccc(-n2nncc2C(C)(C)C)cc1
[3]
  IC50: > 100 µM (inactive)

## COC(=O)[C@]1(C)N[C@H](CN(C)C(=O)Nc2ccc(Cl)cc2)[C@@H]2C(=O)N(Cc3ccccc3)C(=O)[C@@H]21
[5]
  AC50: 0.659 µM (active)
[6]
  AC50: 1.3 µM (active)
[7]
  AC50: 1.12 µM (active)
[8]
  AC50: 1.5 µM (active)

## CC[C@@]1(C(=O)OC)N[C@H](CN(C)C(=O)Nc2ccc(OC)cc2)[C@@H]2C(=O)N(Cc3ccccc3)C(=O)[C@@H]21
[5]
  AC50: 1.1 µM (active)
[6]
  AC50: 1.32 µM (active)
[7]
  AC50: 1.71 µM (active)
[8]
  AC50: 1.46 µM (active)

## CC1(C)CC(=O)C(=Cc2cn(CCC#N)nc2-c2ccc(Cl)cc2)C(=O)C1
[9]
  IC50: 31.8 µM (active)

## COc1ccc(/C=C(\C#N)c2nc3cc(C)ccc3[nH]2)cc1Oc1ccc(C(F)(F)F)cc1[N+](=O)[O-]
[1]
  EC50: 4.59 µM (active)
[2]
  EC50: 8.78 µM (active)

## COc1ccccc1N(C)S(=O)(=O)c1ccc(Cl)c(C(=O)NCC2(N(C)C)CCCCC2)c1
[5]
  AC50: 2.92 µM (active)
[6]
  AC50: 3.32 µM (active)
[7]
  AC50: 3.96 µM (active)
[8]
  AC50: 5.54 µM (active)

## CCOC(=O)[C@@H]1[C@H]2COc3ccc(Br)cc3[C@@H]2N2C(=O)N(c3cccc(F)c3)C(=O)[C@@]12C
[5]
  AC50: 2.7 µM (active)
[6]
  AC50: 4.21 µM (active)
[7]
  AC50: 4.41 µM (active)
[8]
  AC50: 2.45 µM (active)

## O=C1CCCCCN1Sc1ccccc1
[13]
  IC50: 87.6 µM (active)
[1]
  EC50: 20.2 µM (active)
[2]
  EC50: 16.9 µM (active)

## COc1ccc(-n2c(C)cc(C(=O)CSc3nnc(-c4cccs4)o3)c2C)cc1
[10]
  AC50: 5.62 µM (active)
[11]
  AC50: 48.6 µM (active)
[12]
  AC50: 5.03 µM (active)

## O=C(O)c1cc(S(=O)(=O)N2CCN(S(=O)(=O)c3ccc4ccccc4c3)CC2)ccc1Br
[4]
  IC50: 6.22 µM (active)

## COc1ccc(-c2csc3ncnc(Oc4ccc5c(C)cc(=O)oc5c4)c23)cc1
[1]
  EC50: 24.8 µM (active)
[2]
  EC50: 47.3 µM (active)

## CCOc1ccc2nc(NC(=O)c3cc([N+](=O)[O-])ccc3N3CCOCC3)sc2c1
[1]
  EC50: 23.3 µM (active)
[2]
  EC50: 48.5 µM (active)
[14]
  EC50: 15 µM (active)

## O=C(NC(=S)Nc1ccc(CN2CCCCC2)cc1)c1cc2ccccc2o1
[3]
  IC50: 32.2 µM (active)

## COC(=O)c1ccc(CCc2cc(O)ccc2O)cc1
[15]
  AC50: 7.94 µM (inconclusive)
[10]
  AC50: 14.5 µM (active)
[11]
  AC50: > 70 µM (inactive)
[12]
  AC50: 3.14 µM (active)

## Cc1c(Br)c(O)c(Br)c2sc(=O)oc12
[9]
  IC50: 62.3 µM (active)

## CC(=O)/N=C1\SC2CS(=O)(=O)CC2N1c1cccc(Cl)c1Cl (stereo not drawn)
[3]
  IC50: > 100 µM (inactive)

## Cc1onc(-c2ccccc2)c1C(=O)Nc1nc2c(s1)C(=O)CC(C)(C)C2
[3]
  IC50: > 100 µM (inactive)

## O=C(Oc1ccc(/N=C2\C(=O)c3ccccc3C(O)=C2Cl)cc1)c1ccc([N+](=O)[O-])cc1
[16]
  EC50: 20.7 µM (active)
[17]
  EC50: 44.1 µM (active)
[18]
  EC50: > 150 µM (not active)
[1]
  EC50: 9.05 µM (active)
[2]
  EC50: 4.97 µM (active)

## CCN(CC)CCC(c1cc(OC)c(OC)c(OC)c1)c1c(OC)cc(OC)c2c(C)cc(=O)oc12 (stereo not drawn)
[3]
  IC50: > 100 µM (inactive)
